From patent US7537775B2, “Low pH skin care compositions containing dehydroacetic acid” (The Procter & Gamble Company, priority 2005, dated 2009)

Assay: Stability of dehydroacetic acid in aqueous low-pH skin care compositions
Assay type: physicochemical
Conditions: observation from formulation attempts
From the text: Dehydroacetic acid also has proven effective in improving skin texture and appearance, and has the additional benefit of reducing oily skin. See, for example, Biederman et al., U.S. Pat. No. 6,150,403. […] Therefore, a need remains for stable, low-pH skin care compositions to effect delivery of dehydroacetic acid, either alone or in combination with other low-pH skin care actives.
The present invention describes skin care compositions in which dehydroacetic acid is stabilized at a pH of about 4.5 and below. […] To effect stabilization of dehydroacetic acid, the compositions of the present invention include oils that have both an optimal solubility parameter and limited solubility in water. The present invention describes stable skin care compositions made by a procedure that utilizes this combination of properties to stabilize dehydroacetic acid in its active form at a low-pH.
Herein, “stable” and “stability” mean compositions which are substantially unaltered in chemical or physical state. […] Transport and storage conditions may include prolonged exposure to temperatures of from about −50° F. to about 150° F. Stability may be determined either by empirical observation or by appropriate methods of chemical analysis that would be known to one of skill in the art.

For `CC(=O)C1C(=O)C=C(C)OC1=O` (stereo not shown) [dehydroacetic acid, 3-acetyl-6-methyl-2H-pyran-2,4,(3H)-dione], the “pH below which dehydroacetic acid begins to exhibit instability” value was “below 7.0”.
